Data as given in ChEMBL document CHEMBL3600286, “Initial optimization and series evolution of diaminopyrimidine inhibitors of interleukin-1 receptor associated kinase 4” (Bioorg Med Chem Lett, 2015).
≈ marks a conversion by molar mass, not a printed value. Calls of active or inactive are those of the source. No cut-off for these calls is given here.

Tests used:
Cytochrome P450 3A4 = Cytochrome P450 3A4 (Homo sapiens, UniProt P08684); test: Inhibition of CYP3A4 (unknown origin); assay type: ADME
[1] = Apparent permeability in pig LLC-PK1 cells; assay type: ADME, cell-based, Sus scrofa
Cytochrome P450 2C9 = Cytochrome P450 2C9 (Homo sapiens, UniProt P11712); test: Inhibition of CYP2C9 (unknown origin); assay type: ADME
[2] = target: T1, Tumor necrosis factor receptor superfamily member 1A (Homo sapiens, UniProt P19438); test: Inhibition of TNFR in human THP1-XBlue cells containing NF-kappaB-inducible SEAP reporter gene assessed as inhibition of TNFalpha-induced TNFR activation incubated at 37 degC for 1 hr by spectrophotometry; assay type: cell-based, THP-1
T1 sequence (P19438 whole entry): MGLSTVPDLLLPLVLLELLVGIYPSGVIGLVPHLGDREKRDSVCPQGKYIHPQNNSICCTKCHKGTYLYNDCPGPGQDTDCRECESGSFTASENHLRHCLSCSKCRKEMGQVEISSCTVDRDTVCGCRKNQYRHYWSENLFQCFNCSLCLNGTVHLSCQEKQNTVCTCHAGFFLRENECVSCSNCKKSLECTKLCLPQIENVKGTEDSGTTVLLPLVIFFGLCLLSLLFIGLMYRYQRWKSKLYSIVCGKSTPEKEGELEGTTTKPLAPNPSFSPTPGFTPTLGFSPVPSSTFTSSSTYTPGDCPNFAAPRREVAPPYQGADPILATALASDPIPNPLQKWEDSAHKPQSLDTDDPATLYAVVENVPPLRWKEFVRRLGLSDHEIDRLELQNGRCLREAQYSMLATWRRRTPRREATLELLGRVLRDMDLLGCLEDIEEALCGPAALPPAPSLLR

[3] = Solubility in pH 7 solution; assay type: physicochemical
Cytochrome P450 2D6 = Cytochrome P450 2D6 (Homo sapiens, UniProt P10635); test: Inhibition of CYP2D6 (unknown origin); assay type: ADME
[4] = target: T2, Interleukin-1 receptor-associated kinase 4 (Homo sapiens, UniProt Q9NWZ3); test: Inhibition of IRAK4-dependent TLR4 signaling in human THP1-XBlue cells containing NF-kappaB-inducible SEAP reporter gene assessed as inhibition of LPS-EK-induced TLR4 activation incubated at 37 degC for 1 hr by spectrophotometry; assay type: cell-based, THP-1
T2 sequence (Q9NWZ3 whole entry): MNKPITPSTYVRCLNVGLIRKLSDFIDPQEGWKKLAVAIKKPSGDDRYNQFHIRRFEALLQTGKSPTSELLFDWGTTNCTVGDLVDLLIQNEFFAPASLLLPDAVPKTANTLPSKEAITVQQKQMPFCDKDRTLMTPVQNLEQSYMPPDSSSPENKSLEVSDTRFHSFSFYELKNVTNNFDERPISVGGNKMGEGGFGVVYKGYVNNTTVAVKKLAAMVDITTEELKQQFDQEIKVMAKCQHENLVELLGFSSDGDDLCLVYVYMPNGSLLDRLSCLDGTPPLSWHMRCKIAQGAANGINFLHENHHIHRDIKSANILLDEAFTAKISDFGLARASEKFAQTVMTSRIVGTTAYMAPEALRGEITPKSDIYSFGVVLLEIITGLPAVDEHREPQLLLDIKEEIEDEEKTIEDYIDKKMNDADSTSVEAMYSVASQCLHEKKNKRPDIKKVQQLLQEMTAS

[5] = target: T3, Interleukin-1 receptor-associated kinase 4 (Homo sapiens) (UniProt Q9NWZ3); test: Potency index, ratio of IC50 for inhibition of IRAK4-dependent TLR4 signaling in human THP1-XBlue cells containing NF-kappaB-inducible SEAP reporter gene to IC50 for human IRAK4 (unknown origin); assay type: cell-based
T3 sequence (whole entry): T2 sequence (Q9NWZ3 whole entry)

[6] = target: T2, Interleukin-1 receptor-associated kinase 4; test: Inhibition of human IRAK4 (unknown origin)
[7] = target: Proto-oncogene tyrosine-protein kinase receptor Ret (Homo sapiens) (UniProt P07949); test: Inhibition of RET (unknown origin)
[8] = target: Receptor-type tyrosine-protein kinase FLT3 (Homo sapiens) (UniProt P36888); test: Inhibition of FLT3 (unknown origin)
[9] = target: Platelet-derived growth factor receptor alpha (Homo sapiens) (UniProt P16234); test: Inhibition of PDGFRA (unknown origin)
[10] = target: Dual specificity protein kinase CLK2 (Homo sapiens) (UniProt P49760); test: Inhibition of CLK2 (unknown origin)
[11] = target: BDNF/NT-3 growth factors receptor (Homo sapiens) (UniProt Q16620); test: Inhibition of TRKB (unknown origin)
[12] = target: Leucine-rich repeat serine/threonine-protein kinase 2 (Homo sapiens) (UniProt Q5S007); test: Inhibition of LRRK2 (unknown origin)
[13] = target: Misshapen-like kinase 1 (Homo sapiens) (UniProt Q8N4C8); test: Inhibition of MINK1 (unknown origin)
[14] = target: Tyrosine-protein kinase Lck (Homo sapiens) (UniProt P06239); test: Inhibition of LCK (unknown origin)

Chain of Receptor-type tyrosine-protein kinase FLT3 (Homo sapiens) (P36888 whole entry): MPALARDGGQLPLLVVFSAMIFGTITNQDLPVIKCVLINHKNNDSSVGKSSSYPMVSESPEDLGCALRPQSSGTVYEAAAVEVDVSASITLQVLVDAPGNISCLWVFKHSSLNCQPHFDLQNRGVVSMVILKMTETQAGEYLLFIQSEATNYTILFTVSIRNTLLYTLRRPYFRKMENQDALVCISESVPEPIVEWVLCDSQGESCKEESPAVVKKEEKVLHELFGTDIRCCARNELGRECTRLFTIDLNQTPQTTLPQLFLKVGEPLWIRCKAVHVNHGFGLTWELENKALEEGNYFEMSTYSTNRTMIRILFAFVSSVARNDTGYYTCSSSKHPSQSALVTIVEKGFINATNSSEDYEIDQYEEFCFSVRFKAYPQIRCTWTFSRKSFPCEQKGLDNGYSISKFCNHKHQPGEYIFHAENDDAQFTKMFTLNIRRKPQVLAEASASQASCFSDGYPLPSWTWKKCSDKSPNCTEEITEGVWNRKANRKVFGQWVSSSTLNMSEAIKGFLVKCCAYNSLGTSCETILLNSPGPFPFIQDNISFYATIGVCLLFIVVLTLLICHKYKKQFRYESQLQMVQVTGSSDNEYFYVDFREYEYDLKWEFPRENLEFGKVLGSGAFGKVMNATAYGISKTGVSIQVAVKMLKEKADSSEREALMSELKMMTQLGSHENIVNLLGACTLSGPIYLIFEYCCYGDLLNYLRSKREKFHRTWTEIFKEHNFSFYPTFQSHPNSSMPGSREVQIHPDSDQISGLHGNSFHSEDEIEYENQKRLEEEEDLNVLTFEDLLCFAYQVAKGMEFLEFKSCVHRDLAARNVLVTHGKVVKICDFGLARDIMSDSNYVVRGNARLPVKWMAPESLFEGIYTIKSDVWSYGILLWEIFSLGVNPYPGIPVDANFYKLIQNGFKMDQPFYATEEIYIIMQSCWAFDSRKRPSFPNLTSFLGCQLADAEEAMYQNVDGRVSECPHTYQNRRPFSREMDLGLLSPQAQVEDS
Chain of Cytochrome P450 2D6 (P10635 whole entry): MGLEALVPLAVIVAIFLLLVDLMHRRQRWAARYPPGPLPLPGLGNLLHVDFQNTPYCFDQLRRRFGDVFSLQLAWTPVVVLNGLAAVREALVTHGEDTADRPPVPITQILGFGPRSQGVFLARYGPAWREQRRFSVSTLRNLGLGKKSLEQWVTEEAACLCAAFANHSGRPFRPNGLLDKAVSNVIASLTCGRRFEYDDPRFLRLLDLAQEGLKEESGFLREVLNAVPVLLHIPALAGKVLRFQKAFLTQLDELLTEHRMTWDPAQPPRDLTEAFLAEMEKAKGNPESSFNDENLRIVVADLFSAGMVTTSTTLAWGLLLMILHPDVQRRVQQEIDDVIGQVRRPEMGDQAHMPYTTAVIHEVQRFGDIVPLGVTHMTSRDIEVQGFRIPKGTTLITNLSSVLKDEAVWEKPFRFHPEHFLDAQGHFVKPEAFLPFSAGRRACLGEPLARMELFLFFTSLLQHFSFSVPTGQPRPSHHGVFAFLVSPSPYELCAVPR
Chain of Cytochrome P450 2C9 (P11712 whole entry): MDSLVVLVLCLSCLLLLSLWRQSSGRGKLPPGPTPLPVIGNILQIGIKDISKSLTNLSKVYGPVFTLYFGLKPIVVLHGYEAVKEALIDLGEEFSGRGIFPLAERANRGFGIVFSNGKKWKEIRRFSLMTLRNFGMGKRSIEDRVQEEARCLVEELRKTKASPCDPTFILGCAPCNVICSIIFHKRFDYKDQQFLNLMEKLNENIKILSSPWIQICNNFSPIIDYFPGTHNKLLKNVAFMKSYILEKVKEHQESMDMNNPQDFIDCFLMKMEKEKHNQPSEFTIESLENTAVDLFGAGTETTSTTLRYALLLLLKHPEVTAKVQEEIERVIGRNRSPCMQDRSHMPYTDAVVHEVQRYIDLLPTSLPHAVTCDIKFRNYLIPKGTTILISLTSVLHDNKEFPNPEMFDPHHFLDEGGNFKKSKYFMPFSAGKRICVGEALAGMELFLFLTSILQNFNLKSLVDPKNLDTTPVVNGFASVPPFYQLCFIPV
Chain of Cytochrome P450 3A4 (P08684 whole entry): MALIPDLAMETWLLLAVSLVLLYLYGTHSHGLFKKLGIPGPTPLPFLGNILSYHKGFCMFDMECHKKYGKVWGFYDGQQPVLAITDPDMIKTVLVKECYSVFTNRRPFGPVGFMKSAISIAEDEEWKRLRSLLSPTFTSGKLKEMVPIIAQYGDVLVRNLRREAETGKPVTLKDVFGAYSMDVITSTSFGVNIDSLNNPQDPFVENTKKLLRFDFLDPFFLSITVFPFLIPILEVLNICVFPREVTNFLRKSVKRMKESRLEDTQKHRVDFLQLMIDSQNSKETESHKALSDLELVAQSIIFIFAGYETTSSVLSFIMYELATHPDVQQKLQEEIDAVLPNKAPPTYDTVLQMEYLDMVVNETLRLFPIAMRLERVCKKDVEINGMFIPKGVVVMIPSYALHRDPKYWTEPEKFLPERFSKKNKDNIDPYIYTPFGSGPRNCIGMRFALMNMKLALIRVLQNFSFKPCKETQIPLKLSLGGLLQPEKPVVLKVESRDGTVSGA
Chain of Misshapen-like kinase 1 (Homo sapiens) (Q8N4C8 whole entry, looked up): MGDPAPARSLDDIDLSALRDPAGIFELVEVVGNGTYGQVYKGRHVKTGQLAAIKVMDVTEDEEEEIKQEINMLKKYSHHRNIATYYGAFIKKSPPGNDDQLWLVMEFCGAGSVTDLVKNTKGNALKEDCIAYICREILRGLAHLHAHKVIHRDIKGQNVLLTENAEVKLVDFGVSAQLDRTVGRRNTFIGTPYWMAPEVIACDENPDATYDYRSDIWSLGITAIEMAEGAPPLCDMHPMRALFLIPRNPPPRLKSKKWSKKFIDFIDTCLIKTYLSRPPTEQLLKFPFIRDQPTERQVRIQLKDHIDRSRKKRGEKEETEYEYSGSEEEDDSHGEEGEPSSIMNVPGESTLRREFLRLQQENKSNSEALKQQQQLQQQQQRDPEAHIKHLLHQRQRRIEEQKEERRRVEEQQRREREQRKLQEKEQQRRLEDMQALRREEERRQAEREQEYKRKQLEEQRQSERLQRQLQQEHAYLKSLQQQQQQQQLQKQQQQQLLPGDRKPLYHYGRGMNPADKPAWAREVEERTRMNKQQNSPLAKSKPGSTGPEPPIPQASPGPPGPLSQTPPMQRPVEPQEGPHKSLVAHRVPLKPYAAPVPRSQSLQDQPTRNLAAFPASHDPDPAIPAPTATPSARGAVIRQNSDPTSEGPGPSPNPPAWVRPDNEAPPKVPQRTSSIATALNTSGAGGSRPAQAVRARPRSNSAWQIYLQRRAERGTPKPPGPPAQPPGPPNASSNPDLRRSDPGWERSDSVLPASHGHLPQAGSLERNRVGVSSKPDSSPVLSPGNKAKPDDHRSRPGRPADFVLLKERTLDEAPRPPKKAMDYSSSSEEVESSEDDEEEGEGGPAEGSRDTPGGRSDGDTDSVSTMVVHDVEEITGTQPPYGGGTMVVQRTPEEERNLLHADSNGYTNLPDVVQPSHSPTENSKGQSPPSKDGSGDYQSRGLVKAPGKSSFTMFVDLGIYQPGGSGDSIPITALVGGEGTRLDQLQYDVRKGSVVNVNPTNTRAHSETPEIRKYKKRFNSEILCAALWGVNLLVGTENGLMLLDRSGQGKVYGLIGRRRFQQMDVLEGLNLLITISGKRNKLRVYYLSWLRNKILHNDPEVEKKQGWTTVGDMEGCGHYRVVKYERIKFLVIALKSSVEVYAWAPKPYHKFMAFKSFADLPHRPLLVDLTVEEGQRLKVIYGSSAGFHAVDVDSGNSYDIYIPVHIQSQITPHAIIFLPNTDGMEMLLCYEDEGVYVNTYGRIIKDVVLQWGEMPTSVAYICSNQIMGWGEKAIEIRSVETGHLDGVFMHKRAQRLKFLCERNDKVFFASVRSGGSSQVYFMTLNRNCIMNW
Chain of BDNF/NT-3 growth factors receptor (Homo sapiens) (Q16620 32-822 limits assumed): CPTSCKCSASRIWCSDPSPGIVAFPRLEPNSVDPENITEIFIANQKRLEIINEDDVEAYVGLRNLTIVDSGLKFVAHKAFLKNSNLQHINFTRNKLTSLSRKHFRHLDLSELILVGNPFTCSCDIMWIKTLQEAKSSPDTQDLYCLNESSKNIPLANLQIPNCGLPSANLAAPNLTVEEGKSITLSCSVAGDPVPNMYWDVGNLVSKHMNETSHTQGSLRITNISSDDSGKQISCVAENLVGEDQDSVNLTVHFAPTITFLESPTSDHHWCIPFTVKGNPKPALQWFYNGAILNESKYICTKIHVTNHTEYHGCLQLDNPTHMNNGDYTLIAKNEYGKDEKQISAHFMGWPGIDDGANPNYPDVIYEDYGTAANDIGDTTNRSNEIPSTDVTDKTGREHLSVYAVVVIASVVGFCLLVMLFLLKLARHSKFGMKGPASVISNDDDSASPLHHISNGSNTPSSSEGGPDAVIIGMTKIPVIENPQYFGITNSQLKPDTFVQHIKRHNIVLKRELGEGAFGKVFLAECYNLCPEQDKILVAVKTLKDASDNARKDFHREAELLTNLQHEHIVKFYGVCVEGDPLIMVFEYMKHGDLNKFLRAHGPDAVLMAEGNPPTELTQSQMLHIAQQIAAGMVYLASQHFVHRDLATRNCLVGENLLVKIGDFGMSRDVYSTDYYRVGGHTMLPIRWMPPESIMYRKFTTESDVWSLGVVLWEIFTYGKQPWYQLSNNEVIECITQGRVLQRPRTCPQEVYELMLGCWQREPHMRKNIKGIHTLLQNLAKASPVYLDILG

| IC50 (Cytochrome P450 3A4) [nM] | Papp [1] [×10⁻⁶ cm/s] | IC50 (Cytochrome P450 2C9) [nM] | solubility [3] [µM] | IC50 (Cytochrome P450 2D6) [nM] | IC50 [4] [nM] | Ratio IC50 [5] | IC50 [6] [nM] | SMILES | IC50 [2] [nM] | other results |
| --- | --- | --- | --- | --- | --- | --- | --- | --- | --- | --- |
|  |  |  |  |  |  |  | 852 | Cc1cc(Nc2ncc(-c3cscn3)c(N[C@@H]3C[C@H](CO)[C@@H](O)[C@H]3O)n2)cc(C)n1 |  |  |
|  |  |  |  |  |  |  | > 20000 | OC[C@H]1C[C@@H](Nc2nc(Nc3ccncc3)ncc2-c2nccs2)[C@H](O)[C@@H]1O |  |  |
| > 50000 | > 15 | > 50000 | 31 (≈ 15.5 µg/mL) | > 50000 | 341 | 10 | 44 | OC[C@H]1C[C@@H](Nc2nc(Nc3ccnc(OC4CC4)c3)ncc2-c2ccc3ccccc3n2)[C@H](O)[C@@H]1O | > 31000 |  |
|  |  |  |  |  |  |  | 89 | COc1cc(Nc2ncc(-c3nc(-c4ccccc4)cs3)c(N[C@@H]3C[C@H](CO)[C@@H](O)[C@H]3O)n2)ccn1 |  |  |
|  |  |  |  |  |  |  | 12 | OC[C@H]1C[C@@H](Nc2nc(Nc3cncnc3)ncc2-c2nc3cnccc3s2)[C@H](O)[C@@H]1O |  |  |
|  |  |  |  |  |  |  | 6010 | COc1cc(Nc2ncc(-n3cccn3)c(N[C@@H]3C[C@H](CO)[C@@H](O)[C@H]3O)n2)ccn1 |  |  |
|  |  |  |  |  |  |  | 932 | Cc1cc(Nc2ncc(-n3cccn3)c(N[C@@H]3C[C@H](CO)[C@@H](O)[C@H]3O)n2)cc(C)n1 |  |  |
| > 50000 | 2 | > 50000 | < 4 | > 50000 | 3450 | > 240 | 14 | Cc1cc(Nc2cc(N[C@@H]3C[C@H](CO)[C@@H](O)[C@H]3O)c(-c3nc4ccccc4s3)cn2)cc(C)n1 | > 31000 | inhibition [7]: Active; inhibition [8]: Active; inhibition [9]: Active; inhibition [10]: Active |
|  |  |  |  |  |  |  | 11 | OC[C@H]1C[C@@H](Nc2nc(Nc3cccnc3)ncc2-c2nc3cnccc3s2)[C@H](O)[C@@H]1O |  |  |
|  |  |  |  |  |  |  | 647 | OC[C@H]1C[C@@H](Nc2nc(NC3CC3)ncc2-c2nc3cnccc3s2)[C@H](O)[C@@H]1O |  |  |
| > 50000 | > 15 | > 50000 | 22 (≈ 10.4 µg/mL) | > 50000 | 25 | 10 |  | COc1cc(Nc2ncc(-c3ccc4ccccc4n3)c(N[C@@H]3C[C@H](CO)[C@@H](O)[C@H]3O)n2)ccn1 | > 31000 |  |
|  |  |  |  |  |  |  | 12 | Cc1cc(Nc2ncc(-c3nc4ccncc4s3)c(N[C@@H]3C[C@H](CO)[C@@H](O)[C@H]3O)n2)ccn1 |  |  |
| > 50000 | > 15 | > 50000 | 17 (≈ 8.58 µg/mL) | > 50000 | 87 | 10 | 4 | Cc1cc(Nc2ncc(-c3nc(-c4ccccc4)cs3)c(N[C@@H]3C[C@H](CO)[C@@H](O)[C@H]3O)n2)cc(C)n1 | > 31000 | inhibition [8]: Active; inhibition [11]: Active; inhibition [12]: Active; inhibition [13]: Active |
|  |  |  |  |  |  |  | 2110 | Cc1cc(Nc2ncc(-c3cncs3)c(N[C@@H]3C[C@H](CO)[C@@H](O)[C@H]3O)n2)cc(C)n1 |  |  |
|  |  |  |  |  |  |  | 18 | OC[C@H]1C[C@@H](Nc2nc(Nc3cccnc3)ncc2-c2nc3ccncc3s2)[C@H](O)[C@@H]1O |  |  |
| > 50000 | > 15 | > 50000 | 19 (≈ 9.32 µg/mL) | > 50000 | 94 | 10 | 11 | Cc1cc(Nc2ncc(-c3nc(-c4ccccc4)cs3)c(N[C@@H]3C[C@H](CO)[C@@H](O)[C@H]3O)n2)ccn1 | > 31000 |  |
| > 50000 | > 15 | > 50000 | 72 (≈ 34 µg/mL) | > 50000 | 55 | 10 | 0.74 | Cc1cc(Nc2ncc(-c3ccc4ccccc4n3)c(N[C@@H]3C[C@H](CO)[C@@H](O)[C@H]3O)n2)cc(C)n1 | > 31000 | inhibition [8]: Active; inhibition [14]: Active; inhibition [11]: Active; inhibition [12]: Active; inhibition [10]: Active; inhibition [13]: Active |

| SMILES | IC50 (Cytochrome P450 3A4) [nM] | Papp [1] [×10⁻⁶ cm/s] | IC50 (Cytochrome P450 2C9) [nM] | solubility [3] [µM] | IC50 (Cytochrome P450 2D6) [nM] | IC50 [4] [nM] | Ratio IC50 [5] | IC50 [6] [nM] | IC50 [2] [nM] | other results |
| --- | --- | --- | --- | --- | --- | --- | --- | --- | --- | --- |
| CC(C)Oc1cc(Nc2ncc(-c3ccc4ccccc4n3)c(N[C@@H]3C[C@H](CO)[C@@H](O)[C@H]3O)n2)ccn1 | > 50000 | > 15 | > 50000 | 23 (≈ 11.6 µg/mL) | > 50000 | 216 | 10 |  | > 31000 |  |
